Assay results reported in US5519024A, “Quinolonecarboxylic acid derivatives and their use” (Takeda Chemical Industries, Ltd., priority 1993, dated 1996).
Structures can show the parent of a compound that is named as a salt. Where two headings read alike, the source gives them in different places.

Molecular target: T1, GPIIb/IIIa (Homo sapiens, UniProt P05106+P08514)
T1 construct: Purification of GPIIb/IIIa from HEL cells; endogenous in cells; host or cells: HEL cells (HEL 92.1.7, ATCC TIB180); endogenous complex solubilized with Triton X-100 and purified in house
Test: Inhibitory activity against binding of GPIIb/IIIa and fibrinogen
Settings: read-out: GPIIb/IIIa Fibrinogen Binding Inhibitory Activity
Procedure: Test Example 1: Inhibitory activity against binding of GPIIb/IIIa and fibrinogen
(1) Cultivation of human erythroleukemia-derived cell line (hereinafter referred to as HEL cells)
HEL cells (HEl92.1.7; ATCC No. TIB180) were purchased from ATCC (Rockville, Md., U.S.A.). The medium was RPMI medium (GIBCO Laboratories, Grand Island, N..Y, U.S.A.) containing 40 mM N-2-hydroxyethylpiperazine-N'-2-ethanesulfonic acid (hereinafter referred to as HEPES) (pH 7.0), 0.2% NaHCO3, 100 μg/ml kanamycin and 10% FCS. The cells were cultured in the presence of 5% CO2 at 37° C., with the medium replaced with a fresh medium to obtain a 4- to 5-fold dilution at intervals of 3 to 4 days.
(2) Purification of GPIIb/IIIa from HEL cells
GPIIb/IIIa was purified by a modification of the method of L. A. Fitzgerald et al. [J. Biol. Chem., 262, 3936 (1987)] as follows: All purification was conducted at room temperature, unless otherwise stated. At 7 days of cultivation, cells were collected from the HEL cell culture broth (cell suspension) by centrifugation (1,000 ×g, 10 minutes, 4° C.). After washing with 20 mM Tris-HCl (pH 7.5) containing 1 mM EDTA and 150 mM NaCl, the cells were suspended in a solubilizing buffer (20 mM Tris-HCl, 150 mM NaCl, 1% Triton X-100, 1 mM MgCl2, 1 mM CaCl2, 0.1 mM (p-amidinophenyl)methanesulfonyl fluoride (hereinafter referred to as APMSF), 10 nM leupeptin, 0.02% NaN3, pH 7.4), followed by gentle stirring at 4° C. for 30 minutes, to solubilize the GPIIb/IIIa. The suspension was centrifuged (100,000 ×g, 1 hour) at 4° C., and the cell debris removed, to yield a cell extract. The cell extract was passed through a Heparin-Sepharose CL-6B column (Pharmacia LKB) and a DEAE-Toyopearl 650M column (Tosoh), both previously equilibrated with a column buffer (20 mM Tris-HCl, 150 mM NaCl, 0.1% Triton X-100, 1 mM MgCl2, 1 mM CaCl2, 0.1 mM APMSF, 1 nM leupeptin, 0.05% NaN3, pH 7.4). The effluent was applied to a ConA-Sepharose column (Pharmacia LKB), previously equilibrated with the same column buffer as above, to adsorb the GPIIb/IIIa, followed by elution with the same column buffer but containing 0.5M methyl α-D-mannopyranoside. The eluted fraction was concentrated at 4° C. using an ultrafiltration apparatus (Amicon Corporation the fraction's molecular weight of 10,000), after which it was subjected to gel filtration through a Sephacryl S-300 column (Pharmacia LKB), previously equilibrated with the same column buffer, to yield a purified standard sample.
(3) Biotinization of human fibrinogen
Conducted by the method of I. F. Charo [I. F. Charo et al., J. Biol. Chem., 266, 1415 (1991)].
Human fibrinogen (Kabi Vitrum AB) was dissolved in PBS to 5 mg/ml and then dialyzed at 4° C. against 0.1M carbonate buffer (pH 8.2) containing 0.1M NaCl. After dialysis, insoluble substances were removed by centrifugation (100,000 ×g, 30 minutes), and the dialyzate was diluted to 1 mg/ml with the same buffer. To this dilution, sulfo-N-hydroxysuccinimidebiotin (Pierce Chemical Co.) was added to a final concentration of 0.2 mg/ml, followed by gentle mixing at room temperature for 30 minutes, to biotinize the fibrinogen. After completion of the reaction, the mixture was dialyzed against 0.05M Tris-HCl buffer (pH 7.4) containing 0.1M NaCl and 0.05% NaN3.
(4) Determination of inhibitory activity against fibrinogen binding
Conducted by a modification of the method of I. F. Charo [I. F. Charo et al., J. Biol. Chem., 266, 1415 (1991)] as follows: The purified GPIIb/IIIa was diluted to 1 μg/ml with buffer A (20 mM Tris-HCl, 150 mM NaCl, 1 mM CaCl2, 0.02% NaN3, pH 7.4). A 100 μl aliquot of this dilution was dispensed to a 96-well microplate (Maxisorp, produced by Nunc), and the plate kept standing at 4° C., to adsorb the GPIIb/IIIa to the microplate. Next, 150 μl of buffer B (35 mg/ml BSA, 50 mM Tris-HCl, 100 mM NaCl, 2 mM CaCl2, 0.02% NaN3, pH 7.4) was added, followed by 2 hours of blocking at 30° C. […]

T1 sequence (P08514 32-887 limits assumed): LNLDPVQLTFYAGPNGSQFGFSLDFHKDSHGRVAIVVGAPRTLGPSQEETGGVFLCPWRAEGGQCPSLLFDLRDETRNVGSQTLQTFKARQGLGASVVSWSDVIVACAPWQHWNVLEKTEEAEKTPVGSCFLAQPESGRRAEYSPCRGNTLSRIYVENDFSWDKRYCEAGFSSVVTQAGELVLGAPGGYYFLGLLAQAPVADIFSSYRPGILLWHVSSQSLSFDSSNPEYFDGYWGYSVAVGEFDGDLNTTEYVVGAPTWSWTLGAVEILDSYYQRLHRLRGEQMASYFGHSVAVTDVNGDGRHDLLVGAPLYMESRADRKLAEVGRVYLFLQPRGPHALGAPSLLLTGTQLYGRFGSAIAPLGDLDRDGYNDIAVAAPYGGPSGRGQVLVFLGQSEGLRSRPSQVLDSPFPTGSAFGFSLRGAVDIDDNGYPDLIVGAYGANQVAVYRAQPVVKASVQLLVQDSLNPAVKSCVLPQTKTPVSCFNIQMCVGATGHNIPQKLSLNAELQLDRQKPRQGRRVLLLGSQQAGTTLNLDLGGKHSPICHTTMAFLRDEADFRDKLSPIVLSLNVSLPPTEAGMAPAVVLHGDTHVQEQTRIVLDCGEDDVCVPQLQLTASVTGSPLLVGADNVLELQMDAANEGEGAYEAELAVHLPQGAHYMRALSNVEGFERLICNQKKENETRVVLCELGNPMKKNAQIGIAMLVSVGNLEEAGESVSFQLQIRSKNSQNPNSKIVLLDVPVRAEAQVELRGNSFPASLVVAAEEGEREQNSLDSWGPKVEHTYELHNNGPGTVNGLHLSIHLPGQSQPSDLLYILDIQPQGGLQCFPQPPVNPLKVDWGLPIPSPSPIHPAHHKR
T1 sequence (P08514 891-1039 limits assumed): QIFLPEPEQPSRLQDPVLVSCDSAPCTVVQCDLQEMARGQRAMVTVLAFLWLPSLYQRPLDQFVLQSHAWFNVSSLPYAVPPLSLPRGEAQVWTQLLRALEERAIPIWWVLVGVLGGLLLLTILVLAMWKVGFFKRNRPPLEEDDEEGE
T1 sequence (P05106 27-788): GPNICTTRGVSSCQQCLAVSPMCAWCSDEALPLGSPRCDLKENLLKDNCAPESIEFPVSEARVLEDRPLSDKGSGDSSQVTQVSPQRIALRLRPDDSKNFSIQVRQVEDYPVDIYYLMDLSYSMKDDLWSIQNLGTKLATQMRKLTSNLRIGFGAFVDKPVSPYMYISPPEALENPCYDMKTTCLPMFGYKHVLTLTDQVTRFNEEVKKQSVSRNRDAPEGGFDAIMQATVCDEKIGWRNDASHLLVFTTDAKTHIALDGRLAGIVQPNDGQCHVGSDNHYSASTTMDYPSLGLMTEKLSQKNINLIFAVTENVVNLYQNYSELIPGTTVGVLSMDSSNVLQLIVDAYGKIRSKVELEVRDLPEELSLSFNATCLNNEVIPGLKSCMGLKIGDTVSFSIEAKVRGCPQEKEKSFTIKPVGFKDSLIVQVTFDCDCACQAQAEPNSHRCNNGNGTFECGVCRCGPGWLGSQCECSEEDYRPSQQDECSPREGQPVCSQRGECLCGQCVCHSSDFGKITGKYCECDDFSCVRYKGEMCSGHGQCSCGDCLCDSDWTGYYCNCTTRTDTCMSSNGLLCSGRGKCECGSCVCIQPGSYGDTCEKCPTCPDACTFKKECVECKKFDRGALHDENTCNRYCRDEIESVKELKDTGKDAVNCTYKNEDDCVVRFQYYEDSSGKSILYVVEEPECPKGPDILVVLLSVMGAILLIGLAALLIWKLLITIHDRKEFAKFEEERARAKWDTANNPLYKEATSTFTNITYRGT

SMILES	inhibition at 1 µM (Table 2, 10^-6 M) [%]	inhibition at 10 µM (Table 2, 10^-5 M) [%]	other results
CN1CCN(c2c(F)cc3c(=O)c(C(=O)O)cn(C4CN(C)C4)c3c2F)CC1 [Compound 16]	43.2	60.4	
O=C(O)c1cn(C2CC2)c2cc(N3CCN4CCC[C@H]4C3)c(F)cc2c1=O [Compound 32]	39.5	71.2	
O=C(O)c1cn(CCF)c2c(F)c(N3CCn4ccnc4C3)c(F)cc2c1=O [Compound 9]	43.9	69.5	
O=C(O)c1cn(C2CC2)c2c(F)c(SC3CCNCC3)c(F)cc2c1=O [Compound 19]	7	49.7	
O=C(O)CCn1cc(C(=O)O)c(=O)c2cc(F)c(N3CCNCC3)c(F)c21 [Compound 14]	56.1		
O=C(O)c1cn(C2CC2)c2c(F)c(N3CCn4cc(CN5CCOCC5)nc4C3)c(F)cc2c1=O [Compound 30]	24.2	54.8	
O=C(O)c1cn(C2CC2)c2c(F)c(N3Cc4ccccc4C(CO)C3)c(F)cc2c1=O (centres unmarked) [Compound 36]	36.3	56	
CC1COc2c(N3CCN(C)CC3)c(F)cc3c(=O)c(C(=O)O)cn1c23 (centres unmarked) [Ofloxacin, reference compound]			inhibition at 10 µM (Table 1, 1 × 10^-5 M): 42.4%; inhibition at 1 µM (Table 1, 1 × 10^-6 M): 4%
O=C(O)c1cn(C2CC2)c2cc(N3CCNCC3)c(F)cc2c1=O [Cyprofloxacin, reference compound]			inhibition at 1 µM: 47.6%; inhibition at 10 µM: 85.5%
CNCCN(C)c1nc2c(cc1F)c(=O)c(C(=O)O)cn2C1CC1 [Compound 20]	12	59.4	
NC1CN(c2c(F)cc3c(=O)c(C(=O)O)cn(C4CC4)c3c2F)Cc2ccccc21 (centres unmarked) [Compound 35]	21.5	51.8	
CN(C)CCOC1CCN(c2c(F)cc3c(=O)c(C(=O)O)cn(C4CC4)c3c2F)C1 (centres unmarked) [Compound 25]	67.7	87.8	
Cc1cnc2n1CCN(c1c(F)cc3c(=O)c(C(=O)O)cn(C4CC4)c3c1F)C2 [Compound 29]	38.4	68.7	
CN1CCN(C(=O)OC2CCN(c3c(F)cc4c(=O)c(C(=O)O)cn(C5CC5)c4c3F)C2)CC1 (centres unmarked) [Compound 26]	71.4	94.1	
CN1CCN(c2c(F)cc3c(=O)c(C(=O)O)cn(CCF)c3c2F)CC1 [Compound 7]	62.1	91	
CCNCc1cn2c(n1)CN(c1c(F)cc3c(=O)c(C(=O)O)cn(C4CC4)c3c1F)CC2 [Compound 27]	42.6	78.4	
CCN1CCCC1CNc1c(F)cc2c(=O)c(C(=O)O)cn(C3CC3)c2c1F (centres unmarked) [Compound 24]	24.9	50	

More lines, main results first:

inhibition at 1 µM (Table 2, 10^-6 M) [%]	inhibition at 10 µM (Table 2, 10^-5 M) [%]	SMILES	other results
30.5		NC(=O)c1ccc(-n2cc(C(=O)O)c(=O)c3cc(F)c(N4CCNCC4)c(F)c32)cc1 [Compound 49]	
100	100	COc1cccc(Cn2cc(C(=O)O)c(=O)c3cc(F)c(N4CCC(C5CCNCC5)CC4)c(F)c32)c1 [Compound 80, 6,8-Difluoro-1-(3-methoxybenzyl)-7-[4-(4-piperidinyl)piperidin-1-yl]-1,4-dihydro-4-oxoquinoline-3-carboxylic acid]	
100	100	O=C(O)c1cn(Cc2nccs2)c2c(F)c(N3CCNCC3)c(F)cc2c1=O [Compound 59, 6,8-Difluoro-7-(1-piperazinyl)-1-(2-thiazolylmethyl)-1,4-dihydro-4-oxoquinoline-3-carboxylic acid hydrochloride]	
81.2	100	O=C(O)c1cn(Cc2nccs2)c2c(F)c(N3CCN(c4ccccn4)CC3)c(F)cc2c1=O [Compound 65]	
100	100	O=C(O)c1cn(Cc2nccs2)c2c(F)c(N3CCC(C4CCNCC4)CC3)c(F)cc2c1=O [Compound 68]	
57.7		NCc1nc2c(s1)CCN(c1c(F)cc3c(=O)c(C(=O)O)cn(C4CC4)c3c1F)C2 [Compound 48]	
72.2	88.2	O=C(O)c1cn(CCc2ccccc2)c2c(F)c(N3CCNCC3)c(F)cc2c1=O [Compound 56]	
100	100	CN1CCN(C(=O)OC2CCN(c3c(F)cc4c(=O)c(C(=O)O)cn(Cc5nccs5)c4c3F)C2)CC1 (centres unmarked) [Compound 63]	
34.7	50.6	O=C(O)c1cn(C2CC2)c2c(F)c(N3CCn4ccnc4C3)c(F)c(F)c2c1=O [Compound 40]	
100	100	O=C(O)c1cn(Cc2nccs2)c2cc(N3CCN(c4ccncc4)CC3)ccc2c1=O [Compound 57, 7-[4-(4-Pyridyl)piperazine-1-yl]-1-(2-thiazolylmethyl)-1,4-dihydro-4-oxoquinoline-3-carboxylic acid]	
31.4	59.9	COn1cc(C(=O)O)c(=O)c2cc(F)c(N3CCn4ccnc4C3)c(F)c21 [Compound 45]	
92.2	100	CC(=O)NCCN1CCN(c2c(F)cc3c(=O)c(C(=O)O)cn(Cc4nccs4)c3c2F)CC1 [Compound 69]	
100	100	O=C(O)c1cn(Cc2nccs2)c2c(F)c(N3CCN(CCO)CC3)c(F)cc2c1=O [Compound 71]	
21	50.1	O=C(O)c1cn(-c2ccncc2)c2c(F)c(N3CCNCC3)c(F)cc2c1=O [Compound 54]	
100	100	CN(C)CCOC1CCN(c2c(F)cc3c(=O)c(C(=O)O)cn(Cc4nccs4)c3c2F)C1 (centres unmarked) [Compound 62]	
97.1	100	O=C(O)c1cn(Cc2nccs2)c2c(F)c(N3CCCNCC3)c(F)cc2c1=O [Compound 61]	
100	100	O=C(O)c1cn(Cc2nccs2)c2cc(N3CCC(C4CCNCC4)CC3)ccc2c1=O [Compound 58, 7-[4-(4-Piperidinyl)piperidin-1-yl]-1-(2-thiazolylmethyl)-1,4-dihydro-4-oxoquinoline-3-carboxylic acid]	
43.1		NC(=O)OC1CCN(c2c(F)cc3c(=O)c(C(=O)O)cn(-c4ccc(F)cc4F)c3c2F)C1 (centres unmarked) [Compound 47]	
100	98.1	O=C(O)c1cn(Cc2ccc(F)cc2)c2c(F)c(N3CCC(C4CCNCC4)CC3)c(F)cc2c1=O [Compound 78, 6,8-Difluoro-1-(4-fluorobenzyl)-7-[4-(4-piperidinyl)piperidin-1-yl]-1,4-dihydro-4-oxoquinoline-3-carboxylic acid]	
